In US20230099367A1 (VERSITECH LIMITED, priority 2019, published 2023):
Ends that are not written are not given here.

What was measured:
[1] = in vivo; cited from earlier work
[2] = Acute oral toxicity over 14 days (OECD-423), LD50 estimation; assay type: in vivo, C57BL/6J mice
Protocol: In vitro and in vivo toxicity testing was performed. All these test were performed using the OECD guidelines. […] The MTT assay was performed on liver cells (HepG2 cell line) and kidney cells (HEK293 cell line) as they are the major organs effected by drug toxicity. […] Additionally, the potential carcinogenicity of this drug is tested according to OECD-471 (Ames test) using the commercially available kit from XENOMETRIX. The mutation effect of the drug was tested in salmonella strains (TA98, TA100, TA1535 and TA1537) and on the combination of two E.coli strains (uvrA and pKM101) (FIGS. 8a; 8b; 8c; 8d and 8e). […] Additionally, as the drug's secondary metabolite can also have carcinogenic effect, the Ames test was performed in presence of liver enzymes which can cause the formation of secondary metabolites (S9 liver extract) (FIGS. 9a; 9b; 9c; 9d and 9e). […] The animal testing was done under an animal license from the Laboratory Animal Unit (LAU) of the University of Hong Kong for testing at acute, sub-chronic and chronic levels of exposure. The study was done based on the OECD-423 guidelines. […] The test was done on 6 animals in two batches in both males and females. The body weight change remained under 2 grams (FIG. 11) which is normal growth for 9 weeks old C57BL/6J (https://www.jax.org/jax-mice-and-services/strain-data-sheet-pages/body-weight-chart-000664#). […] The animals were subjected to histological analysis post sacrificing on day 14. Major organs like brain, heart, liver, kidney, intestine, and colon were collected and analysed. […] However, in order to determine a dose for sub-chronic and chronic studies, according to OECD recommendations, 3 animals were administered 5000 mg/kg BW of drug in a single administration. […] During the 14 day observation the animals remained healthy with no change in body weight and body temperature (FIG. 13).
In vitro and in vivo toxicity testing was performed. All tests were performed using the OECD guidelines. […] The MTT assay was performed on liver cells (HepG2 cell line) and kidney cells (HEK293 cell line) as they are the major organs effected by drug toxicity. […] Additionally, the potential carcinogenicity of this drug is tested according to OECD-471 (Ames test) using the commercially available kit from XENOMETRIX. The mutation effect of the drug was tested in salmonella strains (TA98, TA100, TA1535 and TA1537) and on the combination of two E.coli strains (uvrA and pKM101) (FIGS. 19a; 19b; 19c; 19d and 19e). […] Additionally, as the drug's secondary metabolite can also have carcinogenic effect, the Ames test was performed in presence of liver enzymes which can cause the formation of secondary metabolites (S9 liver extract) (FIGS. 20a; 20b; 20c; 20d and 20e). […] The animal testing was done under an animal license from the Laboratory Animal Unit (LAU) of the University of Hong Kong for testing at acute, sub-chronic and chronic levels of exposure. The study was done based on the OECD-423 guidelines. […] The test was done on 6 animals in two batches in both males and females. The body weight change remained under 2 grams (FIG. 21) which is normal growth for 9 weeks old C57BL/6J (https://www.jax.org/jax-mice-and-services/strain-data-sheet-pages/body-weight-chart-000664#). […] The animals were subjected to histological analysis post sacrificing on day 14. Major organs like brain, heart, liver, kidney, intestine, and colon were collected and analysed. […] However, in order to determine a dose for sub-chronic and chronic studies, according to OECD recommendations, 3 animals were administered 5000 mg/kg BW of drug in a single administration. […] During the 14 day observation the animals remained healthy with no change in body weight and body temperature (FIG. 23).

SCTR = target: T1, SCTR (Mus musculus, UniProt Q5FWI2); test: Ex vivo cAMP assay on isolated mouse tissues; set-up: species or system mice (C57); settings: isolated C57 mouse tissues; secretin 1 μM, KSD179019 100 μM
T1 construct: low expression levels of the intrinsic receptor; from tissue; host or cells: duodenum, pancreas, cerebellum and kidney of C57 mice
From the text: Various tissues were collected from C57 mice and were washed three times with ice-cold HBSS (Invitrogen). Tissues were minced and weighed equally into four parts. […] After drug treatment, the tissues were homogenized for measuring the concentration of the cAMP by the Lance cAMP assay kit.

plasma vasopressin = test: Plasma vasopressin after intracerebroventricular injection; assay type: in vivo, C57 mice; settings: i.c.v.; secretin 500 ng/5 μl, KSD179019 260 ng/5 μl; 0-60 min; vs ACSF
Protocol: The complete protocol was performed as reported in our lab. Mice were implanted with the stainless-steel cannula with a projection to the lateral ventricular region (bregma: 0.5 mm, lateral: 1.0 mm and depth: 2.0 mm). The mice were allowed to recover for at least 5 days after the surgery. […] ACSF alone was used as a vehicle control. After drug treatment, blood was collected from the jugular vein at 0, 15, 30, 45 and 60 min. Plasma samples were collected from the whole blood by centrifugation at 4000×g for 10 min at 4° C. The samples were then used for the quantification of vasopressin by the help of ELISA using a commercial kit from (Phoenix Pharmaceuticals, Inc.) according to manufacturer instruction.

human SCTR = target: T2, human SCTR (Homo sapiens, UniProt P47872); test: In vitro Lance cAMP assay in CHO cells overexpressing human SCTR; assay type: cell-based
T2 construct: expressed in transfected cells; host or cells: CHO cells
Protocol: As SCTR is known to have cAMP as the secondary messenger, therefore to study receptor activation, the concentration of cAMP is measured by the help of Lance cAMP assay using the assay kit from PerkinElmer, as per the standardized protocol in our lab. […] Additionally, the cells upon transfection were used for the extraction of total RNA (TriPure reagent, Invitrogen) to confirm the receptor's expression.
The selected compounds were procured from TargetMol and chemicalbook.com. […] The five compounds were then used for analyzing their dose-dependent response on the SCTR to verify their effect on the receptor.

blood pressure [3] = test: Blood pressure in spontaneously hypertensive rats (DSI telemetry); assay type: in vivo, spontaneously hypertensive rat (SHR)
Protocol: Anti-hypertensive action of KSD179019 was analyzed by continues monitoring of the blood pressure and heart rate on spontaneously hypertensive rat (SHR) by using DSI telemetric implantation. DSI device was surgically implanted using the methodology described before. […] We used conventional combination therapy i.e. Azilsartan (Az; 0.3 μg/g BW) and Chlorthalidone (CLT; 1 μg/g BW) for the comparison with […]. Az is an angiotensin II receptor antagonist and CLT is a diuretic compound. Both these compounds are commonly used in the treatment of hypertension either individually and in combination. The dosing of the combination of Az+CLT on SHR rats is used as documented in previous publications. For blood pressure monitoring, telemetric device by DSI was used, using the implantation methodology mentioned earlier.

[4] = system: salmonella strains (TA98, TA100, TA1535 and TA1537) and combination of two E.coli strains (uvrA and pKM101); test: Ames test for mutagenicity (OECD-471)
Protocol: In vitro and in vivo toxicity testing was performed. All these test were performed using the OECD guidelines. […] The MTT assay was performed on liver cells (HepG2 cell line) and kidney cells (HEK293 cell line) as they are the major organs effected by drug toxicity. […] Additionally, the potential carcinogenicity of this drug is tested according to OECD-471 (Ames test) using the commercially available kit from XENOMETRIX. The mutation effect of the drug was tested in salmonella strains (TA98, TA100, TA1535 and TA1537) and on the combination of two E.coli strains (uvrA and pKM101) (FIGS. 8a; 8b; 8c; 8d and 8e). […] Additionally, as the drug's secondary metabolite can also have carcinogenic effect, the Ames test was performed in presence of liver enzymes which can cause the formation of secondary metabolites (S9 liver extract) (FIGS. 9a; 9b; 9c; 9d and 9e). […] The animal testing was done under an animal license from the Laboratory Animal Unit (LAU) of the University of Hong Kong for testing at acute, sub-chronic and chronic levels of exposure. The study was done based on the OECD-423 guidelines. […] Major organs like brain, heart, liver, kidney, intestine, and colon were collected and analysed. […]
In vitro and in vivo toxicity testing was performed. […] Major organs like brain, heart, liver, kidney, intestine, and colon were collected and analysed. […]

blood pressure [5] = test: Blood pressure after intraperitoneal secretin (DSI telemetry); assay type: in vivo, C57 mice; settings: secretin 0.5 μg/g BW intraperitoneal; 5 min post administration
Protocol: The DSI telemetric device was implanted using the standardized protocol from our lab. Post recovery, blood pressure measurements, and drug administration were initiated. […] The heart rate and blood pressure were measured continually up to 150 min post-injection time.

[6] = 14 days after 2000 mg/kg BW oral

T2 sequence (P47872 23-440): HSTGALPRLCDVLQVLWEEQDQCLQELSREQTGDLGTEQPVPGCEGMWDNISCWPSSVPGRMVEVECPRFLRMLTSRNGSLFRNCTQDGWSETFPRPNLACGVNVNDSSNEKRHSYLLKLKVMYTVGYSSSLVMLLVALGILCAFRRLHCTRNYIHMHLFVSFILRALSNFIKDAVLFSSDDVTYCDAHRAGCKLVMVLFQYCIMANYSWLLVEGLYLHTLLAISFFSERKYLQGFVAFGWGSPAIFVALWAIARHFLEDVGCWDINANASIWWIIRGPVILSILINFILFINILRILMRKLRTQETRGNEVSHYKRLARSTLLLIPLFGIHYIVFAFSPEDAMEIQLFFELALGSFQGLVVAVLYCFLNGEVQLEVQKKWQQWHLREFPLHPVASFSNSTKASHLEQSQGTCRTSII
T1 sequence (Q5FWI2 29-447): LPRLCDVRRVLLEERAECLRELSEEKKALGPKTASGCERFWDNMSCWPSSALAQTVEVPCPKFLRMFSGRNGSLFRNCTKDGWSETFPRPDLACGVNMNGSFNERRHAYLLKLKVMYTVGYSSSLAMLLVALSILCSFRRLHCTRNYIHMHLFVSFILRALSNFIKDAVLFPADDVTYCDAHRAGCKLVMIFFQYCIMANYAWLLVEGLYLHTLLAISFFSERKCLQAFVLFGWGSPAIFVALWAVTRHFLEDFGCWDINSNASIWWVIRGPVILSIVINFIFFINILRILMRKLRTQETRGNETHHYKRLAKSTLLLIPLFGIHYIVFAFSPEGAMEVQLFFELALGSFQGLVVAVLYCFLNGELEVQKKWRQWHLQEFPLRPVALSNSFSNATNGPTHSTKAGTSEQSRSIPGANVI

ChiRhoStim: synthetic secretin peptide analog
half-life in circulation [1]: 45 min

c1ccc2c(Oc3nc(Nc4ccc(N5CCOCC5)cc4)c4ncn(C5CCCCC5)c4n3)cccc2c1 [KSD179019, puromorphamine]
fatal or toxic effects ([2]; 5000 mg/kg BW single administration, 14 day observation): no fatal or toxic effects were observed
overall health of animals ([2]; 14 day after single oral dose of 2000 mg/kg BW): no effect on the overall health of animals
body temperature [2, 6]: remained constant
body weight change [2, 6]: under 2 grams
histological analysis of major organs (necrosis) ([2]; day 14, brain, heart, liver, kidney, intestine, colon, 2000 mg/kg BW): None of these organs were observed to have any signs of necrosis
LD50 ([2]; single oral administration, male and female mice, estimated, no fatality at 2000 mg/kg BW): 2000-5000 mg/kg BW
cAMP production from duodenum, cerebellum and pancreas (SCTR): able to stimulate cAMP production
plasma Vp (vasopressin) concentration (plasma vasopressin): significant increase in plasma Vp
efficacy, % of maximal cAMP (of secretin) (human SCTR; SCT with KSD179019 (100 μM), maximal cAMP by SCT at 1 μM): 131.9%
cAMP concentration compared to basal level (agonist screening) (human SCTR; compound 100 μM, CHO cells overexpressing human SCTR): low but statistically significant increase in cAMP concentration
cAMP response together with secretin (antagonist screening) (human SCTR; compound (10 μM in FIG. 6 legend, 100 μM elsewhere in the source) with 1 μM secretin): potentiated the effect of secretin with significantly higher cAMP response
dose-dependent effect on secretin cAMP stimulation (human SCTR; different secretin concentrations plus KSD179019 100 μM): dose-dependent potentiation of secretin on cAMP stimulation
hypotensive effect, times longer than combination therapy (Az and CLT) (blood pressure [3]; SHR rats): 3 times
hypotensive effect, times longer than secretin peptide (blood pressure [3]; SHR rats): 360 times
time that reduction in blood pressure lasted significantly (blood pressure [3]; SHR, 0.26 μg/g BW tail vein (FIG. 12C)): up to 20 hours
blood pressure reduction (blood pressure [3]; SHR, 0.26 μg/g BW tail vein injection, vs saline): consistent blood pressure reduction
drop in blood pressure at peak (blood pressure [3]; SHR, KSD179019, peaked at 40 hours): 10%
reduction in mean arterial blood pressure (blood pressure [3]; SHR, intravenous 0.26 μg/g BW, up to 60 hours post administration): approximately 10%
reduction of MABP (blood pressure [3]; SHR, intravenous, at 40 and 60 hours (FIG. 13B, N=2)): 10%
time window of statistically significant drops in diastolic and systolic blood pressure (blood pressure [3]; SHR, oral 30, 50 and 80 mg/kg BW (FIG. 17)): 20 to 50 h
time window of statistically significant drops in diastolic and systolic blood pressure (blood pressure [3]; SHR, tail-vein 0.26 μg/g body weight (FIG. 16)): 20 to 50 h
duration of hypotensive effect post administration (blood pressure [3]; SHR, until blood pressure recovered / effect still observed): up to 60 hours
carcinogenic potential of drug or metabolites, Ames test ([4]; in presence of S9 liver extract): no carcinogenic potential
mutation effect, Ames test ([4]; without S9 liver extract): No mutational effect

SecreFlo: synthetic secretin peptide analog (HSDGTFTSELSRLRDSARLQRLLQGLV; ends and bridges not checked; UniProt P63298 33-59, looked up)
half-life in circulation [1]: 20 min

CC(C)C[C@H](NC(=O)CNC(=O)[C@H](CCC(N)=O)NC(=O)[C@H](CC(C)C)NC(=O)[C@H](CC(C)C)NC(=O)[C@H](CCCNC(=N)N)NC(=O)[C@H](CCC(N)=O)NC(=O)[C@H](CC(C)C)NC(=O)[C@H](CCCNC(=N)N)NC(=O)[C@H](C)NC(=O)CNC(=O)[C@H](CCC(=O)O)NC(=O)[C@H](CCCNC(=N)N)NC(=O)[C@H](CC(C)C)NC(=O)[C@H](CCCNC(=N)N)NC(=O)[C@H](CO)NC(=O)[C@H](CC(C)C)NC(=O)[C@H](CCC(=O)O)NC(=O)[C@H](CO)NC(=O)[C@@H](NC(=O)[C@H](Cc1ccccc1)NC(=O)[C@@H](NC(=O)CNC(=O)[C@H](CC(=O)O)NC(=O)[C@H](CO)NC(=O)[C@@H](N)Cc1c[nH]cn1)[C@@H](C)O)[C@@H](C)O)C(=O)N[C@H](C(N)=O)C(C)C [secretin, reference compound]
systolic and diastolic blood pressure drop (blood pressure [5]): blood pressure drop was significant
half-life in circulation [1]: approximately 2 min
cAMP production from duodenum, cerebellum and pancreas (SCTR): able to stimulate cAMP production
plasma Vp (vasopressin) concentration (plasma vasopressin): significant increase in plasma Vp
duration of blood pressure reduction (blood pressure [3]; intravenous injection of secretin peptide): approximately 10 min
